Experimental data taken from US20250230138A1, “COMPOUNDS HAVING A T-STRUCTURE FORMED BY AT LEAST FOUR CYCLES FOR USE IN THE TREATMENT OF CANCER AND OTHER INDICATIONS” (TheRas, Inc., priority 2022, published 2025).
Like-named read-outs stand apart in the source and are kept apart here.

Assays:
[1] = test system: pAKT in BT474 cells; test: Cell-based pAKT HTRF assay in BT474 cells; details: BT474 cells, 4 hr incubation, read-out: pAKT inhibition IC50 in BT474 cells
Summary of the method: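 Cells grown in DMEM with 10% FBS were exposed to compounds for 4 hr in 0.25% DMSO, using a 9-point, 3-fold dilution series that starts at 3 μM. Lysates were incubated with d2 and Eu Cryptate antibodies for 4–24 h at room temperature, and HTRF was read at 615 nm emission.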

[2] = biological target: Cys242 in human PIK3CA (157-299) (Homo sapiens (Human), UniProt P42336); test: Covalent modification assay using MALDI-TOF MS; type: biochemical; details: 4 h reaction time point
Sequence of Cys242 in human PIK3CA (157-299) (P42336 157-299): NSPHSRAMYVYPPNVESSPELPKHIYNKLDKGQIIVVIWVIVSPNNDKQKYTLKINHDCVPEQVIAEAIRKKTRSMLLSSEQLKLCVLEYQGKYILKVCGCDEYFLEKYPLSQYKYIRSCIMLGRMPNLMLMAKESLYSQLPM
Summary of the method: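 PIK3CA (157-299), 3.33 or 1 μM in 20 mM HEPES, 150 mM NaCl, 2 mM MgCl2, pH 7.3, was incubated with compound at room temperature in the dark for 15 min, 30 min, 2 h or 4 h. Linear MALDI-TOF read-out; % modification = adduct peak height over summed heights of all protein species.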

[3] = 3.33 μM protein target, 1:7.5 protein to compound ratio (compounds 1-852)
[4] = 1 μM protein target, 1:5 protein to compound ratio (compounds 853-1279)
[5] = Homo sapiens, BT-474, Compounds 10-999

| Compound | IC50 ([1]; Compounds 10-999) | IC50 ([1]; Compounds 1000-1279) | IC50 [1, 5] | % of modification [2, 3] | % of modification [2, 4] |
| --- | --- | --- | --- | --- | --- |
| C=CC(=O)N1Cc2cc(-c3nc(-c4ccc5c(c4)CCN(C)C5)c4ccsc4c3-c3c(F)cc(F)cc3OCC)nn2C(C)C1 (stereo not drawn) [Compound 485] | < 100 nM |  |  | A (percent of modification of PIK3CA protein ≥75%) |  |
| C=CC(=O)N1CCc2nc(-c3nc(-c4ccnc(N)c4)c4ccsc4c3-c3ccc(F)cc3OCCOC)sc2C1 [Compound 141] | < 100 nM |  |  | A (percent of modification of PIK3CA protein ≥75%) |  |
| C=CC(=O)N1CCc2nc(-c3nc(-c4ccc5c(c4)CCN(C)C5)c4ccsc4c3-c3c(F)cc(F)cc3OCCO)sc2C1 [Compound 418] | < 100 nM |  |  | A (percent of modification of PIK3CA protein ≥75%) |  |
| C=CC(=O)N1CC(n2cc(-c3nc(-c4ccnc(N)c4)c4ccsc4c3-c3ccc(F)cc3OCCOC)cn2)C1 [Compound 234] | < 100 nM |  |  | A (percent of modification of PIK3CA protein ≥75%) |  |
| C=CC(=O)N1CCn2nc(-c3nc(N4CCCCC4)c4ccsc4c3-c3ccc(F)cc3OCC3CCN(C)C(=O)C3)cc2C1 (stereo not drawn) [Compound 243] | 100 to 1000 nM |  |  | A (percent of modification of PIK3CA protein ≥75%) |  |
| C=CC(=O)N1CCc2ncc(-c3nc(-c4ccc5c(c4)CN(C)C5=O)c4ccsc4c3-c3c(F)cc(F)cc3OC(C)C)cc2C1 [Compound 407] | < 100 nM |  |  | A (percent of modification of PIK3CA protein ≥75%) |  |

Further lines, with some results ahead:

| IC50 ([1]; Compounds 10-999) | IC50 ([1]; Compounds 1000-1279) | IC50 [1, 5] | Compound | % of modification [2, 3] | % of modification [2, 4] |
| --- | --- | --- | --- | --- | --- |
| < 100 nM |  |  | C=CC(=O)N1CCn2nc(-c3nc(-c4cnn(C)c4)c4ccsc4c3-c3c(F)cc(F)cc3OCCOC)cc2[C@@H]1C [Compound 649] | A (percent of modification of PIK3CA protein ≥75%) |  |
|  | < 100 nM |  | C=CC(=O)N1CCc2ncc(-c3nc(-c4ccc5c(c4)CNC(=O)C54CC4)c4ccsc4c3-c3c(F)cc(F)cc3OCCOC)cc2C1 [Compound 1192] |  | A (percent of modification of PIK3CA protein ≥75%) |
| < 100 nM |  |  | C=CC(=O)N1CCn2nc(-c3nc(-c4ccc5ncn(C)c5c4)c4ccsc4c3-c3c(F)cc(F)cc3OCCOC)cc2C1C (stereo not drawn) [Compound 552] | A (percent of modification of PIK3CA protein ≥75%) |  |
|  |  | < 100 nM | C=CC(=O)N1CCn2nc(-c3nc(-c4cnn(C)c4)c4ccsc4c3-c3ccc(F)cc3OC(C)C)cc2C1 [Compound 200, 1-[2-[7-(4-fluoro-2-isopropoxy-phenyl)-4-(1-methylpyrazol-4-yl)thieno[3,2-c]pyridin-6-yl]-6,7-dihydro-4H-pyrazolo[1,5-a]pyrazin-5-yl]prop-2-en-1-one] | A (percent of modification of PIK3CA protein ≥75%) |  |
|  | < 100 nM |  | C=CC(=O)N1CCn2nc(-c3nc(-c4cnc5c(c4)CN(CCO)CC5)c4ccsc4c3-c3c(F)cc(F)cc3OCCOC)cc2[C@H]1C [Compound 1160] |  | A (percent of modification of PIK3CA protein ≥75%) |
|  | < 100 nM |  | C=CC(=O)N1CCn2nc(-c3nc(-c4cc5c(cc4OC)C(=O)NC5)c4ccsc4c3-c3c(F)cc(F)cc3OCCOC)cc2[C@H]1C [Compound 1063] |  | A (percent of modification of PIK3CA protein ≥75%) |
| < 100 nM |  |  | C=CC(=O)N1Cc2cc(-c3nc(-c4ccc5c(c4)CN(C)C5=O)c4ccsc4c3-c3c(F)cc(F)cc3OCCOC)nn2C[C@H]1C [Compound 795] | A (percent of modification of PIK3CA protein ≥75%) |  |
| < 100 nM |  |  | C=CC(=O)N1CCc2ncc(-c3nc(-c4cn(C)cn4)c4ccsc4c3-c3c(F)cc(F)cc3OC(C)C)cc2C1 [Compound 421] | A (percent of modification of PIK3CA protein ≥75%) |  |
|  |  | < 100 nM | C=CC(=O)N1CCc2cnc(-c3nc(-c4ccc5c(c4)CNC5=O)c4ccsc4c3-c3c(F)cc(F)cc3OC(C)C)cc2C1 [Compound 453, 5-[7-(2,4-difluoro-6-isopropoxy-phenyl)-6-(6-prop-2-enoyl-7,8-dihydro-5H-2,6-naphthyridin-3-yl)thieno[3,2-c]pyridin-4-yl]isoindolin-1-one] | A (percent of modification of PIK3CA protein ≥75%) |  |
